Source: US20250213587A1, “ITK INHIBITORS FOR INCREASING TH1 CELL ACTIVITY” (Corvus Pharmaceuticals, Inc., priority 2022, published 2025)
“Also recorded” adds a separate entry of the source.

Legend:
[1] = biological target: T1, ITK (Homo sapiens, UniProt Q08881); assay: Jump dilution assay; assay type: binding; set-up: purchased Invitrogen
T1 sequence (Q08881 1-620): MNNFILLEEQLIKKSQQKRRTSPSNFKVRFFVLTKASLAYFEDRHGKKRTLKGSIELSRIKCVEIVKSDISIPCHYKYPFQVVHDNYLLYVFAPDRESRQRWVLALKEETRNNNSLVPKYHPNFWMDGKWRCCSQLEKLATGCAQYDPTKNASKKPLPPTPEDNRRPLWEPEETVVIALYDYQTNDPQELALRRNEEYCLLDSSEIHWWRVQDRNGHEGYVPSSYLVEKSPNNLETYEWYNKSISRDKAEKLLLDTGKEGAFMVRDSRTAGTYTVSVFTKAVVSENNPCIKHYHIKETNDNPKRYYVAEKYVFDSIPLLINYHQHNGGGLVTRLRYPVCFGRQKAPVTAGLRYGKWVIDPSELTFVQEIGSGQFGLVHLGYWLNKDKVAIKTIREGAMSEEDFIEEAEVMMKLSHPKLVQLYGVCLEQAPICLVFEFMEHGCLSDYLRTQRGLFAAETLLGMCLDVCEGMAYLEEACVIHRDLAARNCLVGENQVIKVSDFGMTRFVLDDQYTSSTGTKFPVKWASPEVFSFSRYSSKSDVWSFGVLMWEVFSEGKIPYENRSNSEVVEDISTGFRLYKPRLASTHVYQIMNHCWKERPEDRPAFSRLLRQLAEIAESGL
Description: The assay format is similar to the Competitive Tracer-binding Assay and relies on the reversible binding of tracer 236 to recombinant tagged human ITK. […] The mixture was then filtered through a desalting column (Thermo Scientific, Zeba Spin Desalting Column, 40K MWCO) to remove unbound inhibitor. The assay was initiated immediately after the desalting step by diluting the eluate containing the inhibited kinase complex 50-fold into a solution of anti-tag antibody (2 nM final) and excess tracer 236 (40 nM final). Dissociation of inhibitor and binding of tracer was monitored immediately after assay initiation using an EnVision plate reader (excitation 340 nm, dual emission at 665 nm and 615 nm). Reagents including GST-tagged recombinant human ITK, Kinase tracer 236, Lanthascreen Eu-Anti-GST antibody and kinase buffer A were purchased from ThermoFisher Scientific/Invitrogen. Each data point represents the mean of technical triplicates. Equation 3 was fitted to the BMS-509744 data to obtain the rate constant using GraphPad Prism from which the half-life was calculated.

[2] = system: other TEC kinases; conditions: literature; cited from earlier work

| SMILES | reversibility of ITK inhibition on dilution ([1]; dilution into competitive probe) | half-life of inhibitor-ITK complex ([1]; dilution into excess tracer 236) [min] | inhibition of other TEC kinases [2] |
| --- | --- | --- | --- |
| COc1cc(C)c(Sc2cnc(NC(=O)c3ccc(CNC(C)C(C)(C)C)cc3)s2)cc1C(=O)N1CCN(C(C)=O)CC1 (stereo not drawn) [BMS-509744, reference compound] | reversible; also recorded: rapid dissociation | 2.6 | – |
| C=CC(=O)N1CCC[C@@H]1Cn1c(NC(=O)c2ccc(C(F)F)s2)nc2cc(CN[C@@H](C)C(C)(C)C)ccc21 [PRN694] | – | – | significant inhibition |
